Tests used:
[1] = test system: collagen II-induced arthritis; test: Collagen II-induced arthritis in mice; format: in vivo, Male DBA/1 mice; details: FIG. 13; CT2251 10 mg/kg on day -1 and weekly
Method: Male DBA/1 mice were sensitised with type II collagen into the base of the tail in FCA in day 0. These animals received a further injection of CII in FICA (Freunds Incomplete Adjuvant) on day 18 and incidence and severity of arthritis assessed from day 25. Mice were randomised into 3 groups (n=10).

carrageenan pleurisy = test: Carrageenan pleurisy; format: in vivo, Wistar Rats; details: FIG. 14; CT2251 10 mg/kg p.o. at -24 h and -1 h; six hours
Method: Wistar Rats were anaesthetised and given intra-pleural injections of 0.5% carrageenan in saline at time 0. Six hours later the animals were killed and pleural cavity lavaged with 1 ml. citrated saline. Volume of fluid exudate and exudate cell concentration were measured. Animals were randomised to 5 treatment groups (n=6).

[2] = test system: mouse contact sensitisation model; test: Cellular infiltrate (anti-CD3 / anti-Mac-1 positive cells) in challenged ears, contact sensitisation; format: in vivo, mice; details: Experiment 7, FIG. 10, 24 h following challenge
Method: Animals were randomised into 7 groups (n=7-10) and steroids given on days 0 and 5. At 24 h following challenge, ears were removed, fixed and stained with either an anti-CD3 (T-cells) or anti-Mac-1 (monocytes/macrophages) antibody and the number of positive cells counted in 10 random fields.

[3] = test system: rat delayed type hypersensitivity model; test: Delayed type hypersensitivity in the rat; format: in vivo, Lewis rats; details: FIG. 12; CT2251 0.1, 1, 10 mg/kg s.c. days 0, 3 and 4; 24 and 48 h
Method: Lewis rats were sensitised with SRBC IV and challenged 4 days later with 10^8 SRBC into the footpad. The resulting swelling response was measured 24 and 48 h later. Rats were randomised into 5 groups (n=6-7) and steroids given on days 0, 3 and 4, subcutaneously. Results given as mean±sem.

[4] = test system: mouse contact sensitisation model; test: Contact sensitisation (oxazalone, ear swelling) in mice; format: in vivo
Method: 1. Contact Sensitisation (CS)
On day 0, mice were painted on their shaved right flank with 50 μl 2.5% oxazalone or vehicle (acetone 4:1 olive oil). On day 5 animals were challenged on their dorsal right ear surface with 25 μl of either 0.75% or 0.25% oxazalone. Prior to ear challenge, and 24, 48 and 72 hour post challenge ear thickness was measured using an engineer's micrometers. Ear swelling is determined as the difference in thickness prior and post challenge. The data are expressed as percentage change from the vehicle treated groups given sensitisation and challenge.
DHEA, DHEAS were administered at various times, generally at time of sensitisation (day 0) and time of challenge (day 3 or 4-DTH model, day 4 or 5-(CS-model) in order to obtain an augmentation of the immune response above non-steroid treated animals.
Different doses of the inhibitors have been used, and compared to the effect of dexamethasone as potential immunosuppressive/anti-inflammatory agents.

[5] = test system: mouse delayed type hypersensitivity model; test: Delayed type hypersensitivity (SRBC, footpad swelling) in the mouse; format: in vivo; details: FIG. 11, 24 h post challenge
Method: 2. Delayed Type Hypersensitivity (DTH)
On day 0, animals were injected intravenously with 10^6 washed SRBC in 0.1 ml saline. Four days later animals were challenged in the right hind footpad with 10^6 washed SRBC in 50 μl saline. Footpad thickness is measured prior to challenge, 24, 48 and 72 hours post challenge using calipers. Footpad swelling is determined as the difference in thickness prior and post challenge. The data are expressed as percentage change from the vehicle treated groups given sensitisation and challenge.
Animals were randomised into 10 groups (n=7-8) and steroids given on day 0 and 4.
Steroids were given on day 0 and 3 subcutaneously. Response at 24 h post challenge. Results given as mean±sem. $, *p<0.05 ANOVA.

C[C@]12CC[C@@H]3c4ccc(OS(N)(=O)=O)cc4CC[C@H]3[C@@H]1CCC2=O [CT 2251, Estrone 3-0-sulphamate]
development of arthritis (incidence and severity) [1]: prevented the development of any disease
reduction of cell infiltrate (carrageenan pleurisy): 28%
reduction of exudate volume (carrageenan pleurisy): 43%
effect on DHEAS-augmented cell infiltrate ([2]; CT2251 10 mg/kg with DHEAS 5 mg/kg): effectively reversed
number of infiltrating CD3 positive cells, inhibitor on its own ([2]; CT2251 10 mg/kg): able to further reduce the number of infiltrating CD3 positive cells
DTH footpad swelling response [3]: can also suppress a DTH response in rats
normal ear swelling response, inhibitor on its own ([4]; Experiment 4, FIG. 7, CT2251 0.1 and 10 mg/kg s.c. days 0 and 4): significantly inhibited the normal ear swelling response
effect on DHEA-augmented ear swelling ([4]; Experiment 4, FIG. 7, CT2251 0.1 and 10 mg/kg with DHEA 5 mg/kg s.c. days 0 and 4): not that seen with DHEA
effect on DHEAS-augmented ear swelling ([4]; Experiment 4, FIG. 7, CT2251 0.1 and 10 mg/kg with DHEAS 5 mg/kg s.c. days 0 and 4): reversed the augmentation seen with DHEAS
degree of ear swelling ([4]; Experiment 5, FIG. 8, CT2251 0.001-0.3 mg/kg s.c. days 0 and 4, 24 h): inhibited by CT2251 treatment in a dose-dependent manner
inhibitory effect on ear swelling in presence of increasing substrate ([4]; Experiment 6, FIG. 9, CT2251 0.1 mg/kg with DHEAS 5, 15, 50 mg/kg days 0 and 4, 24 h): can be reverse by increasing doses of DHEAS
minimal effective dose ([4]; Mus musculus, sc, Experiment 5, FIG. 8, s.c. days 0 and 4, 24 h, read-out: effective dose for inhibition of ear swelling): ≥ 0.1 mg/kg
foot swelling response, inhibitor on its own ([5]; CT2251 0.1 and 10 mg/kg s.c.): can markedly reduce the foot swelling response
effect on DHEAS-mediated augmentation of foot swelling ([5]; CT2251 0.1 and 10 mg/kg with DHEAS 5 mg/kg s.c.): can effectively reverse the DHEAS-mediated augmentation

From patent US6013642A, “Use of estrone derivatives as steroid sulphatase inhibitors” (priority 1994, dated 2000)
